Test [1] deals with T1, GRK5 (Homo sapiens, UniProt P34947).
T1 construct: purchased Thermo Scientific
The experiment in a line: Lance Kinase Activity Assay, GRK5. Conditions: biochemical Lance kinase activity assay; class symbols A-F; read-out: GRK5 LANCE Assay (IC-50). In a few lines:
(§1)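 IC50s from sigmoidal dose-response over 0.0025-10 μM compound, with phosphorylated ULight substrate detected by Eu anti-phospho antibody FRET after EDTA quench.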
A general note: In TR-FRET formats the signal depends on donor and acceptor labels being close together.

Test [2] concerns the target T2, GRK2 (Homo sapiens, UniProt P25098).
T2 construct: purchased Thermo Scientific
T2 sequence (P25098 1-689): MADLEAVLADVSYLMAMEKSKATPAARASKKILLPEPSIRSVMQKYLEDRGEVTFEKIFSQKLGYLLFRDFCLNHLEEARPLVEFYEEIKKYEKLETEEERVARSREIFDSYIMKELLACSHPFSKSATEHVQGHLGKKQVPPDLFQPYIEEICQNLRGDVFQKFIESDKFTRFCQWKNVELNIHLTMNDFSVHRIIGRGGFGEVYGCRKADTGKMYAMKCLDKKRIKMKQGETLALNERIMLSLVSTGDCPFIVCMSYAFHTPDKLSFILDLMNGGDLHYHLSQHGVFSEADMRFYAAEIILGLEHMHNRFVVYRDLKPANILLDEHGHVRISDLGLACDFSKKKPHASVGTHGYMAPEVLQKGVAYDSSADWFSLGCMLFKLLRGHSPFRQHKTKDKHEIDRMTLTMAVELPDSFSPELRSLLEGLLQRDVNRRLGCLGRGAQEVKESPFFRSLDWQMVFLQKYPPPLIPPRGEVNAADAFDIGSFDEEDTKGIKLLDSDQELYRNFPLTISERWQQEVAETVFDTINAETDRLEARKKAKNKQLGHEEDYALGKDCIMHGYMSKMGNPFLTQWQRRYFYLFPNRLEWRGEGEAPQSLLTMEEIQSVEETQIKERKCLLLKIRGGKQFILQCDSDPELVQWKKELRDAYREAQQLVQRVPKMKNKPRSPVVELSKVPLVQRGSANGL
The experiment in a line: Lance Kinase Activity Assay, GRK2. The settings on record: biochemical Lance kinase activity assay; class symbols A-F; read-out: GRK2 LANCE Assay (IC-50). The essentials: as §1

T1 sequence (P34947 whole entry): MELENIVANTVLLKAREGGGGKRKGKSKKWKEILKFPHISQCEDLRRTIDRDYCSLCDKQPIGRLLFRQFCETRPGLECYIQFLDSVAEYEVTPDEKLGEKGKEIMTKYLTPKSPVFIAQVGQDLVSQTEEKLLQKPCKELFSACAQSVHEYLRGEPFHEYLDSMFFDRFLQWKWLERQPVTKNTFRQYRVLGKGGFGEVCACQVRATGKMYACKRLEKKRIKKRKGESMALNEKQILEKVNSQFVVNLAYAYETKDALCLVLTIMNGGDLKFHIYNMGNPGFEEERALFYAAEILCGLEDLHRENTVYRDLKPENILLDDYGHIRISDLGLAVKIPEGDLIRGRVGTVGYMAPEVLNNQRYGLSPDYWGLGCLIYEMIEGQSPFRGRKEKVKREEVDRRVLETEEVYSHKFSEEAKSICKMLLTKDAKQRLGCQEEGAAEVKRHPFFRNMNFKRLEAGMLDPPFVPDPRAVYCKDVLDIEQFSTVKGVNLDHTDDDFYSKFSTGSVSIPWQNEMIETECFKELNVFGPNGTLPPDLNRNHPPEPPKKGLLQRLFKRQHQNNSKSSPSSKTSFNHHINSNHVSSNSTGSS

Turning to `COc1ccc([C@@H](C)NC(=O)/C=C/c2c[nH]c3nccc(-c4ccc(CN5CCN(C)CC5)cc4)c23)cc1OC` [Example 234, (R,E)-N-(1-(3,4-dimethoxyphenyl)ethyl)-3-(4-(4-((4-methylpiperazin-1-yl)methyl)phenyl)-1H-pyrrolo[2,3-b]pyridin-3-yl)acrylamide], the IC50 in test [1] lay in the range of 100 to 500 nM; in test [2], 1000 to 10000 nM.

For the molecule `COc1ccc([C@@H](C)NC(=O)/C=C/c2c[nH]c3nccc(-c4ccc(N5CCN(C(C)=O)CC5)cc4)c23)cc1OC` [Example 235, (R,E)-3-(4-(4-(4-acetylpiperazin-1-yl)phenyl)-1H-pyrrolo[2,3-b]pyridin-3-yl)-N-(1-(3,4-dimethoxyphenyl)ethyl)acrylamide], the IC50 is 50 to 100 nM in test [1] and greater than 10000 nM in test [2].

In the case of `COc1ccc([C@@H](C)NC(=O)/C=C/c2c[nH]c3nccc(-c4ccc(C(N)=O)cc4)c23)cc1OC` [Example 236, (R,E)-4-(3-(3-((1-(3,4-dimethoxyphenyl)ethyl)amino)-3-oxoprop-1-en-1-yl)-1H-pyrrolo[2,3-b]pyridin-4-yl)benzamide], the IC50 in test [1] was 100 to 500 nM; in test [2] it was greater than 10000 nM.

`COc1ccc([C@@H](C)NC(=O)/C=C/c2c[nH]c3nccc(-c4cnn(C)c4C)c23)cc1OC` [Example 237, (R,E)-N-(1-(3,4-dimethoxyphenyl)ethyl)-3-(4-(1,5-dimethyl-1H-pyrazol-4-yl)-1H-pyrrolo[2,3-b]pyridin-3-yl)acrylamide]: the IC50 in test [1] was 100 to 500 nM; in test [2], greater than 10000 nM.

For the molecule `COc1ccc([C@@H](C)NC(=O)/C=C/c2c[nH]c3nccc(-c4cnn(C)c4)c23)cc1OC` [Example 238, (R,E)-N-(1-(3,4-dimethoxyphenyl)ethyl)-3-(4-(1-methyl-1H-pyrazol-4-yl)-1H-pyrrolo[2,3-b]pyridin-3-yl)acrylamide], the values for the IC50 in test [1] and in test [2] were 100 to 500 nM and greater than 10000 nM, respectively.

Take `CC[S+]([O-])c1cccc(-c2ccnc3[nH]cc(/C=C/C(=O)N[C@H](C)c4ccc(OC)c(OC)c4)c23)c1` (stereo partly drawn) [Example 239, (E)-N-((R)-1-(3,4-dimethoxyphenyl)ethyl)-3-(4-(3-(ethylsulfinyl)phenyl)-1H-pyrrolo[2,3-b]pyridin-3-yl)acrylamide]: the IC50 in test [1] was 500 to 1000 nM; in test [2], greater than 10000 nM.

On to `COc1ccc([C@@H](C)NC(=O)/C=C/c2c[nH]c3nccc(-c4ccc(C5CCN(C)CC5)cc4)c23)cc1OC` [Example 240, (R,E)-N-(1-(3,4-dimethoxyphenyl)ethyl)-3-(4-(4-(1-methylpiperidin-4-yl)phenyl)-1H-pyrrolo[2,3-b]pyridin-3-yl)acrylamide], for which the IC50 in test [1] was in the range of 50 to 100 nM; in test [2], 1000 to 10000 nM.

For the molecule `COc1ccc([C@@H](C)NC(=O)/C=C/c2c[nH]c3nccc(-c4ccc(OCCCN(C)C)cc4)c23)cc1OC` [Example 241, (R,E)-N-(1-(3,4-dimethoxyphenyl)ethyl)-3-(4-(4-(3-(dimethylamino)propoxy)phenyl)-1H-pyrrolo[2,3-b]pyridin-3-yl)acrylamide], the IC50 in test [1] was 50 to 100 nM; in test [2] it was 1000 to 10000 nM.

As to `COc1ccc([C@@H](C)NC(=O)/C=C/c2c[nH]c3nccc(-c4cnn5ccccc45)c23)cc1OC` [Example 242, (R,E)-N-(1-(3,4-dimethoxyphenyl)ethyl)-3-(4-(pyrazolo[1,5-a]pyridin-3-yl)-1H-pyrrolo[2,3-b]pyridin-3-yl)acrylamide], the IC50 is 100 to 500 nM in test [1] and greater than 10000 nM in test [2].

Take `COc1ccc([C@@H](C)NC(=O)/C=C/c2c[nH]c3nccc(-c4cccc(CNC(C)=O)c4)c23)cc1OC` [Example 243, (R,E)-3-(4-(3-(acetamidomethyl)phenyl)-1H-pyrrolo[2,3-b]pyridin-3-yl)-N-(1-(3,4-dimethoxyphenyl)ethyl)acrylamide]: the IC50 in test [1] was 100 to 500 nM; in test [2] it was greater than 10000 nM.

On to `COc1ccc([C@@H](C)NC(=O)/C(C#N)=C/c2c[nH]c3ncc(-c4ccc(N5CCN(C)CC5)cc4)c(C)c23)cc1OC` [Example 244, (R,E)-2-cyano-N-(1-(3,4-dimethoxyphenyl)ethyl)-3-(4-methyl-5-(4-(4-methylpiperazin-1-yl)phenyl)-1H-pyrrolo[2,3-b]pyridin-3-yl)acrylamide], for which the IC50 in test [1] is 500 to 1000 nM; in test [2] it was 1000 to 10000 nM.

As for `COc1ccc([C@@H](C)NC(=O)/C(C#N)=C/c2c[nH]c3ncc(-c4ccc(F)c(S(C)(=O)=O)c4)c(C)c23)cc1OC` [Example 245, (R,E)-2-cyano-N-(1-(3,4-dimethoxyphenyl)ethyl)-3-(5-(4-fluoro-3-(methylsulfonyl)phenyl)-4-methyl-1H-pyrrolo[2,3-b]pyridin-3-yl)acrylamide], the values for the IC50 in test [1] and in test [2] were 500 to 1000 nM and greater than 10000 nM, respectively.

Take `C[C@@H](NC(=O)/C=C/c1c[nH]c2ncc(-c3cnn(C)c3)cc12)c1ccc2c(c1)OCO2` [Example 246, (R,E)-N-(1-(benzo[d][1,3]dioxol-5-yl)ethyl)-3-(5-(1-methyl-1H-pyrazol-4-yl)-1H-pyrrolo[2,3-b]pyridin-3-yl)acrylamide]: the results for the IC50 in test [1] and in test [2] were no more than 50 nM and 1000 to 10000 nM, respectively.

Turning to `COc1ccc([C@@H](C)NC(=O)/C=C/c2c[nH]c3ncc(-c4cc(Cl)cc(S(C)(=O)=O)c4)cc23)cc1OC` [Example 247, (R,E)-3-(5-(3-chloro-5-(methylsulfonyl)phenyl)-1H-pyrrolo[2,3-b]pyridin-3-yl)-N-(1-(3,4-dimethoxyphenyl)ethyl)acrylamide], the IC50 in test [1] was no more than 50 nM; in test [2] it was greater than 10000 nM.

`COc1ccc([C@@H](C)NC(=O)/C=C/c2c[nH]c3ncc(-c4cc(S(C)(=O)=O)ccc4C)cc23)cc1OC` [Example 248, (R,E)-N-(1-(3,4-dimethoxyphenyl)ethyl)-3-(5-(2-methyl-5-(methylsulfonyl)phenyl)-1H-pyrrolo[2,3-b]pyridin-3-yl)acrylamide]: the IC50 is no more than 50 nM in test [1] and greater than 10000 nM in test [2].

Regarding `COc1ccc([C@@H](C)NC(=O)/C=C/c2c[nH]c3ncc(-c4cc(F)cc(S(C)(=O)=O)c4)cc23)cc1OC` [Example 249, (R,E)-N-(1-(3,4-dimethoxyphenyl)ethyl)-3-(5-(3-fluoro-5-(methylsulfonyl)phenyl)-1H-pyrrolo[2,3-b]pyridin-3-yl)acrylamide], the IC50 is no more than 50 nM in test [1] and 1000 to 10000 nM in test [2].

`COc1ccc([C@@H](C)NC(=O)/C=C/c2c[nH]c3ncc(-c4ccnc(S(C)(=O)=O)c4)cc23)cc1OC` [Example 250, (R,E)-N-(1-(3,4-dimethoxyphenyl)ethyl)-3-(5-(2-(methylsulfonyl)pyridin-4-yl)-1H-pyrrolo[2,3-b]pyridin-3-yl)acrylamide]: the IC50 in test [1] is no more than 50 nM; in test [2], 1000 to 10000 nM.

Turning to `COc1ccc([C@@H](C)NC(=O)/C=C/c2c[nH]c3ncc(-c4cccc(S(C)(=N)=O)c4)cc23)cc1OC` (stereo partly drawn) [Example 251, (E)-N-((R)-1-(3,4-dimethoxyphenyl)ethyl)-3-(5-(3-(S-methylsulfonimidoyl)phenyl)-1H-pyrrolo[2,3-b]pyridin-3-yl)acrylamide], the IC50 in test [1] was no more than 50 nM; in test [2] it was 500 to 1000 nM.

In the case of `COc1ccc(C(C)NC(=O)/C=C/c2c[nH]c3ncc(-c4cnn(C)c4)cc23)cc1C1CC1` (stereo not shown) [Example 253, (E)-N-(1-(3-cyclopropyl-4-methoxyphenyl)ethyl)-3-(5-(1-methyl-1H-pyrazol-4-yl)-1H-pyrrolo[2,3-b]pyridin-3-yl)acrylamide], the IC50 was 50 to 100 nM in test [1] and greater than 10000 nM in test [2].

As for `COc1cc(C(C)NC(=O)/C=C/c2c[nH]c3ncc(-c4cnn(C)c4)cc23)ccc1[S+](C)[O-]` (stereo not shown) [Example 255, (E)-N-(1-(3-methoxy-4-(methylsulfinyl)phenyl)ethyl)-3-(5-(1-methyl-1H-pyrazol-4-yl)-1H-pyrrolo[2,3-b]pyridin-3-yl)acrylamide], the IC50 in test [1] is 100 to 500 nM; in test [2], greater than 10000 nM.

Regarding `COc1cc(C(C)NC(=O)/C(C#N)=C/c2c[nH]c3ncc(-c4cnn(C)c4)cc23)ccc1[S+](C)[O-]` (stereo not shown) [Example 256, (E)-2-cyano-N-(1-(3-methoxy-4-(methylsulfinyl)phenyl)ethyl)-3-(5-(1-methyl-1H-pyrazol-4-yl)-1H-pyrrolo[2,3-b]pyridin-3-yl)acrylamide], the IC50 lay within 50 to 100 nM in test [1] and 1000 to 10000 nM in test [2].

For the molecule `C[C@@H](NC(=O)/C=C/c1c[nH]c2ncc(-c3cnn(C)c3)cc12)c1ccc(F)c(F)c1` [Example 257, (R,E)-N-(1-(3,4-difluorophenyl)ethyl)-3-(5-(1-methyl-1H-pyrazol-4-yl)-1H-pyrrolo[2,3-b]pyridin-3-yl)acrylamide], the IC50 was no more than 50 nM in test [1] and 100 to 500 nM in test [2].

Take `C[C@@H](NC(=O)/C(C#N)=C/c1c[nH]c2ncc(-c3cnn(C)c3)cc12)c1ccc(F)c(F)c1` [Example 258, (R,E)-2-cyano-N-(1-(3,4-difluorophenyl)ethyl)-3-(5-(1-methyl-1H-pyrazol-4-yl)-1H-pyrrolo[2,3-b]pyridin-3-yl)acrylamide]: the values for the IC50 in test [1] and in test [2] were no more than 50 nM and 100 to 500 nM, respectively.

(Values after patent US20240294522A1 (Lead Discovery Center GmbH, priority 2021, published 2024).)
